Measured values reported in ChEMBL document CHEMBL1201862, “PubChem BioAssay data set” (2004).
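Method: 48-hour compound exposure of cells in 96-well plates, five concentrations, linear interpolation of endpoints. GI50 = concentration required for 50% inhibition of growth.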 Active and inactive are the calls of the source. Cut-off read from the data, not from the text of the source: active = GI50 up to about 1.1 µM and inactive = higher.

Key:
Assay in all cases: NCI-60 cell line screen, 48 h
COLO 205 = system: COLO 205
CAKI-1 = system: CAKI-1
M14 = system: M14
RPMI-8226 = system: RPMI-8226
KM12 = system: KM12
K562 = system: K562
SR = system: SR
MDA-MB-435 = system: MDA-MB-435
UACC-62 = system: UACC-62
SK-OV-3 = system: SK-OV-3
MDA-MB-231 = system: MDA-MB-231
NCI-H522 = system: NCI-H522
UACC-257 = system: UACC-257
OVCAR-4 = system: OVCAR-4
T47D = system: T47D
SK-MEL-28 = system: SK-MEL-28
SF-539 = system: SF-539
OVCAR-3 = system: OVCAR-3
SW-620 = system: SW-620
MDA-N = system: MDA-N

Measured: GI50

Nc1nccc2c1ncn2C1C=C(CO)C(O)C1O (centres undefined)
inactive: COLO 205 19.7 µM | CAKI-1 21.1 µM | M14 70 µM | RPMI-8226 6.31 µM | KM12 1.6 µM | K562 1.86 µM | SR 3.29 µM | MDA-MB-435 > 100 µM | UACC-62 11.5 µM | SK-OV-3 > 100 µM | MDA-MB-231 > 100 µM | NCI-H522 > 100 µM | UACC-257 18.4 µM | OVCAR-4 59.4 µM | T47D > 100 µM | SK-MEL-28 2.73 µM | SF-539 11.8 µM | OVCAR-3 > 94.4 µM | SW-620 1.75 µM | MDA-N 2.99 µM

Clc1ccc2oc(CCc3ccccc3)nc2c1
inactive: COLO 205 41.7 µM | CAKI-1 38.2 µM | M14 59.8 µM | RPMI-8226 46.1 µM | KM12 37.3 µM | K562 49.9 µM | SR 57.3 µM | MDA-MB-435 44.2 µM | UACC-62 > 100 µM | SK-OV-3 47.2 µM | MDA-MB-231 > 100 µM | NCI-H522 35.6 µM | UACC-257 42.4 µM | OVCAR-4 52 µM | T47D 20.5 µM | SK-MEL-28 72.3 µM | SF-539 > 100 µM | OVCAR-3 21.3 µM | SW-620 49.4 µM | MDA-N 50.1 µM

O=C1c2c(Br)sc(Br)c2[C@@H](O)[C@H]1O
inactive: COLO 205 14.3 µM | CAKI-1 18.4 µM | M14 13.1 µM | RPMI-8226 21.7 µM | KM12 21.2 µM | K562 2.91 µM | SR 1.96 µM | MDA-MB-435 10.7 µM | UACC-62 16.7 µM | SK-OV-3 15.6 µM | MDA-MB-231 16.6 µM | NCI-H522 1.82 µM | UACC-257 15.1 µM | OVCAR-4 14.1 µM | T47D 19.4 µM | SK-MEL-28 19.5 µM | SF-539 15.9 µM | OVCAR-3 2.24 µM | SW-620 3.28 µM | MDA-N 16.3 µM

CC(C)(C)c1cc2c(O)c(c1)Cc1cc(C(C)(C)C)cc(c1O)Cc1cc(C(C)(C)C)cc(c1O)Cc1cc(C(C)(C)C)cc(c1O)Cc1cc(C(C)(C)C)cc(c1O)Cc1cc(C(C)(C)C)cc(c1O)Cc1cc(C(C)(C)C)cc(c1O)Cc1cc(C(C)(C)C)cc(c1O)C2
inactive: COLO 205 > 50 µM | CAKI-1 > 50 µM | M14 > 50 µM | RPMI-8226 > 50 µM | KM12 > 50 µM | K562 > 50 µM | SR > 50 µM | MDA-MB-435 > 50 µM | UACC-62 > 50 µM | SK-OV-3 > 50 µM | MDA-MB-231 > 50 µM | NCI-H522 > 50 µM | UACC-257 > 50 µM | OVCAR-4 > 50 µM | T47D > 50 µM | SK-MEL-28 > 50 µM | SF-539 > 50 µM | OVCAR-3 > 50 µM | SW-620 > 50 µM | MDA-N > 50 µM

COc1ccc(NC(=O)CC(=O)n2nc(C)c(/N=N/c3ccc(C)c(C)c3)c2C)cc1
inactive: COLO 205 > 100 µM | CAKI-1 > 100 µM | M14 > 100 µM | RPMI-8226 > 100 µM | KM12 > 100 µM | SR 43.3 µM | MDA-MB-435 > 100 µM | UACC-62 > 100 µM | SK-OV-3 10.8 µM | MDA-MB-231 > 100 µM | NCI-H522 > 100 µM | UACC-257 > 10 µM | OVCAR-4 > 100 µM | T47D 64.7 µM | SK-MEL-28 > 100 µM | SF-539 26.5 µM | OVCAR-3 > 100 µM | SW-620 > 100 µM | MDA-N > 100 µM
